What was measured:
[1] = biological target: T1, FKBP25-rapalog-mTOR (amino acids 2019-2112) ternary complex (Homo sapiens, UniProt P42345+Q00688); test: SPR ternary complex formation, rapalog bound to FKBP25 with mTOR; format: binding; conditions: rapalog bound to FKBP with mTOR, read-out: FKBP25 apparent affinity KD for ternary complex formation
T1 construct: his^6-mTOR (amino acids 2019-2112) was diluted in buffer; made in house; host or cells: E. coli
Method: (§1) N-terminal avi-his6-tagged FKBP fusion proteins were expressed in E. coli and purified with nickel chromatography using standard procedures. Biotinylated his-avi-FKBPs were immobilized on a streptavidin chip using a Biacore 8K (GE Healthcare). To determine the kinetics-affinity of the rapalogs for FKBPs, rapalogs were diluted in DMSO to 50× working concentration. Next, 3.1 uLs of each rapalog solution was added to 150 uLs of buffer (50 mM Tris pH 7.5/150 mM NaCl/0.01% Tween 20/1 mM DTT) in a 384 deep well plate (greiner bio-one/78127) and mixed using a Biomek FX. The rapalog solution gradients (6 concentrations/2 fold dilutions, 3.1-100 nM or 31-1000 nM or 310-10000 nM) were then injected at 45 uL/min for 120 seconds: contact time and dissociation time was 1800 seconds in running buffer (50 mM Tris pH 7.5/150 mM NaCl/0.01% Tween 20/1 mM DTT/2% DMSO). The single-cycle kinetics data were fit to a 1:1 binding model to measure the association rate ka (1/Ms), the dissociation rate kd (1/s) and the affinity KD (M). […] 3.1 uLs of the 500 μM rapalog solutions were added to 150 uLs of the mTOR samples in a 384 deep well plate (greiner bio-one/78127) and mixed using a Biomek FX. The mTOR solution gradients were then injected at 45 uL/min for 120 seconds: contact time and dissociation time was 1800 seconds in running buffer (50 mM Tris pH 7.5/150 mM NaCl/0.01% Tween 20/1 mM DTT/2% DMSO). […]

FKBP51 = biological target: T2, FKBP51 (Homo sapiens, UniProt Q13451); test: SPR assay, binding affinity to FKBP51; conditions: equilibrium dissociation constant
T2 construct: made in house; host or cells: E. coli
T2 sequence (Q13451 1-457): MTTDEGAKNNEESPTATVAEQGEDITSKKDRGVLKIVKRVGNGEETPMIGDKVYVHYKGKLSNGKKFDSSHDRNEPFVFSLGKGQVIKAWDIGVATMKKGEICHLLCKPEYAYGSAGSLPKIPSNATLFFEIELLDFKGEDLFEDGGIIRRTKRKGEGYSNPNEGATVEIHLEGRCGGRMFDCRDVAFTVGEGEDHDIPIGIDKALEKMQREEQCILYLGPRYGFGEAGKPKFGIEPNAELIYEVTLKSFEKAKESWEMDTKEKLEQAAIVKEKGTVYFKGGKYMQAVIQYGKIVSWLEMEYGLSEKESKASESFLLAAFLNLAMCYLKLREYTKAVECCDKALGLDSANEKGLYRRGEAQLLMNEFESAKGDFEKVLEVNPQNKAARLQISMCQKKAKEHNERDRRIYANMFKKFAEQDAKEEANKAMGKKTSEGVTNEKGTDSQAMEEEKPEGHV
Description: (§2) N-terminal avi-his6-tagged FKBP fusion proteins were expressed in E. coli and purified with nickel chromatography using standard procedures. Biotinylated his-avi-FKBPs were immobilized on a streptavidin chip using a Biacore 8K (GE Healthcare). […] The single-cycle kinetics data were fit to a 1:1 binding model to measure the association rate ka (1/Ms), the dissociation rate kd (1/s) and the affinity KD (M). […] The single-cycle kinetics data was fit to a 1:1 binding model to measure the association rate ka (1/Ms), the dissociation rate kd (1/s) and the apparent affinity KD (M) for ternary complex formation. The equilibrium dissociation constants (KD) to FKBP12, FKBP51, and FKBP52 are shown below in Table 6.

FKBP12 = biological target: T3, FKBP12 (Homo sapiens, UniProt P62942); test: SPR assay, binding affinity to FKBP12; conditions: equilibrium dissociation constant
T3 construct: made in house; host or cells: E. coli
T3 sequence (P62942 whole entry): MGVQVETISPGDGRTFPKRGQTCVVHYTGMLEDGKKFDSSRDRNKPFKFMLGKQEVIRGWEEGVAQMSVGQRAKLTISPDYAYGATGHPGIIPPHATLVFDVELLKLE
Description: as §2

[2] = biological target: T4, FKBP12.6-rapalog-mTOR (amino acids 2019-2112) ternary complex (Homo sapiens, UniProt P42345+P68106); test: SPR ternary complex formation, rapalog bound to FKBP12.6 with mTOR; format: binding; conditions: rapalog bound to FKBP with mTOR, read-out: FKBP12.6 apparent affinity KD for ternary complex formation
T4 construct: his^6-mTOR (amino acids 2019-2112) was diluted in buffer; made in house; host or cells: E. coli
T4 sequence (P68106 whole entry, the tested form may be a part): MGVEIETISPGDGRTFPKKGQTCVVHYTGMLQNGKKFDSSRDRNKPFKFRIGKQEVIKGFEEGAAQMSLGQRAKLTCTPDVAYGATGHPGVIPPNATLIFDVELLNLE
T4 sequence (P42345 2019-2112 limits assumed): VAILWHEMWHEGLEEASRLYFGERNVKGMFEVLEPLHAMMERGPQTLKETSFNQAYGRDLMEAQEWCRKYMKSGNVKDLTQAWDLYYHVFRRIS
Method: as §1

[3] = system: mTORC1 activity, S6K1 (Thr389) in FKBP12/12.6/13/52/51 knock-out 293T cells; test: S6K1(Thr389) phosphorylation ELISA in FKBP12/12.6/13/52/51 knock-out 293T cells; format: cell-based
Description: A CRISPR/Cas9 system was used to deliver ribonucleoprotein complexes containing guide RNA (gRNA) sequences that target FKBP12
([…], location 35620248) into 293T cells, using the Amaxa® 4D-Nucleofector™ X Kit (Lonza, V4XC-2032). Cell clones were screened by immunoblotting with anti-FKBP-specific antibodies: FKBP12 (Novus, NB300-508), FKBP12.6 (Abnova, H00002281-M01), FKBP13 (R&D Systems, MAB4356), FKBP25 (R&D Systems, MAB3955), FKBP52 (Cell signaling Technology, #11826) and FKBP51 (Cell signaling Technology, #12210). […] Quintuple FKBP12/12.6/13/52/51 knock-out and FKBP12/12.6/25/52/51 knock-out cells were generated by sequentially knocking out five FKBP genes.
WT, FKBP12 knock-out, FKBP12/12.6/13/52/51 knock-out or FKBP12/12.6/25/52/51 knock-out 293T cells were plated at a density of 30,000 cells per well in poly-D-Lysine coated 96-well plates (Corning, #354461) in Dulbecco's modified Eagle's medium (ThermoFisher, #11995-065) supplemented with 10% fetal bovine serum (ThermoFisher, #16140-071). Cells were incubated at 37° C., 5% CO2 for 48 hours until they reached ˜80% confluence. […] Media supplemented with blank Dimethyl sulfoxide (DMSO) was used as a control for both compounds. Phosphorylated amounts of S6K1 (Thr389) were detected by a sandwich ELISA kit (Cell signaling, #7063C) following the manufacture's protocol.

T1 sequence (Q00688 whole entry, the tested form may be a part): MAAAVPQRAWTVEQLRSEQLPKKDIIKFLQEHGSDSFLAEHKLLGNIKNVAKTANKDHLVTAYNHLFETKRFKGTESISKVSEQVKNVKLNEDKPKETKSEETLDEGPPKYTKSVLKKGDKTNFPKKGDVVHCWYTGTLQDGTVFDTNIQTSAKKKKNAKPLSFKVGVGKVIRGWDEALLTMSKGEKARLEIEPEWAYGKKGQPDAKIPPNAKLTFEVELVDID
T1 sequence (P42345 2019-2112 limits assumed): as the sequence (P42345 2019-2112 limits assumed) above

| Compound | Kd [1] | Kd (FKBP51) | Kd (FKBP12) | Kd [2] | inhibitory effect (potency) on S6K1 (Thr389), in words [3] | inhibition of S6K1 (Thr389) ([3]; at the highest tested concentration) |
| --- | --- | --- | --- | --- | --- | --- |
| CO[C@@H]1C[C@H](C[C@@H](C)[C@@H]2CC[C@H](C)/C=C(\C)[C@@H](O)[C@@H](OC)C(=O)[C@H](C)C[C@H](C)/C=C/C=C/C=C(\C)[C@@H](NS(C)(=O)=O)C[C@@H]3CC[C@@H](C)[C@@](O)(O3)C(=O)C(=O)N3CCCC[C@H]3C(=O)O2)CC[C@H]1O [Compound 2] | 2 nM | 144 nM | 4.8 nM | 55 nM | efficacious in inhibiting S6K1 (Thr389) | ~90% |
| CO[C@H]1C[C@@H]2CC[C@@H](C)[C@@](O)(O2)C(=O)C(=O)N2CCCC[C@H]2C(=O)O[C@H]([C@H](C)C[C@@H]2CC[C@@H](OCCO)[C@H](OC)C2)CC(=O)[C@H](C)/C=C(\C)[C@@H](O)[C@@H](OC)C(=O)[C@H](C)C[C@H](C)/C=C/C=C/C=C/1C [RAD001, everolimus, reference compound] | 75 nM | 811 nM |  | 47 nM | lost almost all it potency |  |
